Assay [1] deals with human leukocytes (basophils). Description: Inhibition of IgE-mediated histamine release from human leukocytes (basophils), Procedure A. Format: cell-based. To be noted: for IC50: Leukocyte, 1 h, read-out: In Vitro Inhibition of Histamine Release IC50 (μM) Procedure A.
Description: A. Procedure for Determining Inhibition of Histamine Release from Human Leukocytes (Basophils)
Separation of Leukocytes: A modification of the method of L. Lichtenstein and A. Osler, J. Exp. Med. 120, 507 (1964) is used. Heparinized human blood (80-100 ml) is mixed with 20 ml of saline (0.2%) containing 0.6 gm of dextrose and 1.2 gm of dextran in propylene centrifuge tubes. The mixture is kept at ambient temperature for 60-90 minutes to allow the separation of erythrocytes from the platelet-leukocyte-rich supernate. The supernate is removed and centrifuged for 8 minutes at 110 ×g in cold. The leukocyte pellet is washed twice with Tris buffer and finally suspended in 150-180 ml Tris-ACM buffer at 1-2 ×10^6 cells/ml.
Reaction Mixture: The reaction is carried out in 12×75 mm plastic tubes at a total volume of 1.23 ml. The reaction medium includes 0.05 ml rabbit anti-human IgE (the antigen), 0.2 ml of the test compound in water at concentrations ranging from 10-100 μM, and 1.0 ml of the leukocyte suspension. The reaction mixture is incubated in a 37° C. shaking water bath for 60 minutes. Upon completion of the reaction, the tubes are centrifuged and the supernatants collected. The protein is removed from the supernatants by precipitation with 0.2 ml of 8% perchloric acid.
Histamine Assay: Histamine release is measured by the automated fluorometric method of W. Siraganian and W. Hook in Chapter 102 of the Manual of Clinical Immunology, 2nd Edition, edited by R. Rose and H. Friedman, published by the American Society for Microbiology, Washington, D.C., 1980. Percent inhibition is calculated as follows: [formula]
The concentration which causes a 50 percent inhibition (IC50) of histamine release is interpolated from a plot of percent inhibition versus logarithm of drug concentration.
The target in assay [2] is T1, histamine (H1) receptor (Cavia porcellus, UniProt P31389).
T1 construct: contraction of isolated guinea pig ileum; from tissue; host or cells: isolated guinea pig ileum
Description: Antagonism of histamine-induced contraction of isolated guinea pig ileum. Format: tissue-based. As to conditions: histamine final concentration 0.2 μg/ml, 50% reduction of contractile response, read-out: Inhibition IC50 (μM) of histamine-induced contraction. An excerpt:
Certain compounds of formula I inhibit in vitro the histamine-induced contraction of isolated guinea pig ileum and are useful in warm-blooded animals for antagonizing the action of histamine at the histamine (H1) receptor. Accordingly, these compounds can be employed in a conventional manner as antihistamine agents for the treatment of allergic disorders, for example allergic rhinitis, vasomotor rhinitis, allergic conjunctivitis, hay fever, urticaria, and food allergies.
The antagonism of the effects of histamine on the contraction of isolated guinea pig ileum by the compounds of formula I can be determined by the procedure of G. Possanza, A. Bauen, and P. Stewart, Int. Arch. Allergy Appl. Immunol., 49, 289 (1975). The degree of inhibition is determined as the difference between the contraction caused by histamine (final concentration 0.2 μg/ml) alone and that seen in the presence of both histamine and the test compound. The inhibitory activity of the test compound is expressed as that concentration of the compound which causes a 50% reduction of the contractile response (IC50).

The mark [3] stands for this setting: from human basophils, rabbit anti-human IgE as antigen, 60 min at 37° C., > = no response detected at highest dose indicated.

Experimental findings from patent US4618677A, “Substituted phenylalkyl-(piperazinyl or homopiperazinyl)alkyl-thiols and -thiocarbamates useful for the treatment of immunological, inflammatory, and allergic disorders” (Boehringer Ingelheim Limited, priority 1984, dated 1986) are described below.

What is called IC50 is the midpoint of a concentration-inhibition curve.

Structures are written as SMILES. Values joined by “and” are separate entries in the source; they are usually repeats but may differ in a detail not shown here. Equal entries are not always repeated. Structures can show the parent of a compound that is named as a salt. Where two headings read alike, the source gives them in different places. Bounds are passed on as bounds.

T1 sequence (P31389 whole entry): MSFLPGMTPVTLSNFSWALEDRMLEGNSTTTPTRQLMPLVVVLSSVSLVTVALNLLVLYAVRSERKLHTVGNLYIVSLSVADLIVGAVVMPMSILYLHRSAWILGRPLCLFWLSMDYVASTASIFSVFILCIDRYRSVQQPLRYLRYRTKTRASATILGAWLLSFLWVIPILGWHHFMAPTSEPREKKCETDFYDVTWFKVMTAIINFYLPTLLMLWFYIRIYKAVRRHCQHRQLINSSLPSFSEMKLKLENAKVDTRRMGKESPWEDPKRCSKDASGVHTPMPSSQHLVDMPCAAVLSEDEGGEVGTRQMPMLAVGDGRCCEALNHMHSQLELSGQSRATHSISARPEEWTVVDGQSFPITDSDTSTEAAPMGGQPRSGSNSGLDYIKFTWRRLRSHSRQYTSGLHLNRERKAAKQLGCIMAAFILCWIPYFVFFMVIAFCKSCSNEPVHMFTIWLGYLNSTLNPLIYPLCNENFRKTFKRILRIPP

On to `CCCCCCNC(=O)SCCCN1CCCN(Cc2ccc(Cl)cc2)CC1` [Example 46, N-(n-Hexyl)-S-{3-[4-(4-chlorobenzyl)homopiperazin-1-yl]propyl}thiocarbamatedihydrochloride], for which the half-inhibitory concentration (IC50) in assay [1] (setting [3]) was 12 µM.

In the case of `O=C(Nc1ccccc1)SCCCN1CCN(c2ccc(F)cc2)CC1` [Example 35, N-Phenyl-S-{3-[4-(4-fluorophenyl)piperazin-1-yl]propyl}thiocarbamate dihydrochloride], the IC50 in assay [1] (setting [3]) was over 1000 µM. In the case of `O=C(Nc1ccccc1)SCCCN1CCN(Cc2ccccc2)CC1` [Example 2, N-Phenyl-S-[3-(4-benzylpiperazin-1-yl)propyl]thiocarbamate dihydrochloride monohydrate], the IC50 in assay [1] (setting [3]) was determined as 310 µM. Still for that read-out and setting: the figure for `O=C(Nc1ccc(Cl)c(Cl)c1)SCCCN1CCN(Cc2ccc(Cl)cc2)CC1` [Example 11, N-(3,4-Dichlorophenyl)-S-{3-[4-(4-chlorobenzyl)piperazin-1-yl]propyl}thiocarbamate dihydrochloride] is over 1000 µM.

For the compound `O=C(Nc1ccc(F)cc1)SCCCN1CCN(Cc2ccc(Cl)cc2)CC1` [Example 9, N-(4-Fluorophenyl)-S-{3-[4-(4-chlorobenzyl)piperazin-1-yl]propyl}thiocarbamate dihydrochloride], the 50% inhibitory concentration (IC50) was found to be 11 µM in assay [1] (setting [3]) and 0.12 µM in assay [2]. Take `CC(C)NC(=O)SCCCN1CCN(Cc2ccc(Cl)cc2)CC1` [Example 5, N-Isopropyl-S-{3-[4-(4-chlorobenzyl)piperazin-1-yl]propyl}thiocarbamate dihydrochloride]: the “In Vitro Inhibition of Histamine Release IC50 (μM) Procedure A” value in assay [1] (setting [3]) is recorded as “Int”. Besides, in assay [2], the 50% inhibitory concentration (IC50) was 0.21 µM and 0.3 µM. With `SCCCN1CCN(Cc2ccc(Cl)cc2)CC1` [Example 3, 3-[4-(4-Chlorobenzyl)piperazin-1-yl]propanethiol dihydrochloride], the IC50 in assay [1] (Homo sapiens) amounted to 4 µM. For the compound `SCCCN1CCN(Cc2ccccc2)CC1` [Example 1, 3-(4-Benzylpiperazin-1-yl)propanethiol dihydrochloride], the IC50 in assay [1] (Homo sapiens) worked out at 140 µM. Regarding `CC1CN(Cc2ccc(Cl)cc2)C(C)CN1CCCSC(=O)Nc1ccccc1` (stereo not drawn) [Example 20, N-Phenyl-S-{3-[4-(4-chlorobenzyl)-2,5-dimethylpiperazin-1-yl]propyl}thiocarbamate dihydrochloride], the IC50 in assay [1] (setting [3]) is over 1000 µM. As to `Cc1ccc(CN2CCN(CCCS)CC2)cc1` [Example 17, 3-[4-(4-Methylbenzyl)piperazin-1-yl]propanethiol dihydrochloride], the IC50 in assay [1] (Homo sapiens) is 24 µM. In the case of `COc1cc(NC(=O)SCCCN2CCN(CCc3ccc(Cl)cc3)CC2)cc(OC)c1OC` [Example 29, N-(3,4,5-Trimethoxyphenyl)-S-{3-[4-(4-chlorophenethyl)piperazin-1-yl]propyl}thiocarbamate dihydrochloride], the values for the concentration for half-maximal inhibition (IC50) in assay [1] (setting [3]) and in assay [2] were 9 µM and 0.18 µM, respectively. `O=C(Nc1ccccc1)SCCN1CCN(Cc2ccc(Cl)cc2)CC1` [Example 37, N-phenyl-S-{2-[4-(4-chlorobenzyl)piperazin-1-yl]ethyl}thiocarbamate dihydrochloride]: in assay [1] (setting [3]), the half-inhibitory concentration (IC50) stood at 3 µM. On to `COc1ccc(NC(=O)SCCCN2CCN(Cc3ccc(Cl)cc3)CC2)cc1` [Example 14, N-(4-Methoxyphenyl)-S-{3-[4-(4-chlorobenzyl)piperazin-1-yl]propyl}thiocarbamate dihydrochloride monohydrate], for which the IC50 in assay [2] was found to be 0.12 µM. On to `CCCCc1ccc(NC(=O)SCCCN2CCN(Cc3ccc(Cl)cc3)CC2)cc1` [Example 8, N-(4-n-Butylphenyl)-S-{3-[4-(4-chlorobenzyl)piperazin-1-yl]propyl}thiocarbamate dihydrochloride], for which the half-inhibitory concentration (IC50) in assay [1] (setting [3]) came to 760 µM. For `O=C(Nc1ccccc1)SCCCN1CCN(CCc2ccccc2)CC1` [Example 24, N-Phenyl-S-[3-(4-phenethylpiperazin-1-yl)propyl]thiocarbamate dihydrochloride monohydrate], the IC50 in assay [1] (setting [3]) was over 1000 µM. Regarding `CNC(=O)SCCCN1CCN(Cc2ccc(Cl)cc2)CC1` [Example 4, N-Methyl-S-{3-[4-(4-chlorobenzyl)piperazin-1-yl]propyl}thiocarbamate dihydrochloride], the “In Vitro Inhibition of Histamine Release IC50 (μM) Procedure A” value in assay [1] (setting [3]) is given as “Int”. Also, in assay [2], the IC50 stood at 0.19 µM.

With `CC(c1ccccc1)N1CCN(CCCSC(=O)Nc2ccccc2)CC1` (stereo not drawn) [Example 22, N-Phenyl-S-{3-[4-(1-phenylethyl)piperazin-1-yl]propyl}thiocarbamate dihydrochloride dihydrate], the IC50 in assay [1] (setting [3]) worked out at 67 µM. For `SCCCN1CCCN(Cc2ccc(Cl)cc2)CC1` [Example 45, 3-[4-(4-Chlorobenzyl)homopiperazin-1-yl]propanethiol], in assay [1] (setting [3]), the IC50 is 3 µM. On to `COc1ccc(NC(=O)SCCCN2CCN(CCCc3ccc(Cl)cc3)CC2)cc1` [Example 39, N-(4-Methoxyphenyl)-S-{3-[4-[3-(4-chlorophenyl)propyl]piperazin-1-yl]propyl]thiocarbamate dihydrochloride hemihydrate], for which, in assay [1] (setting [3]), the IC50 amounted to 13 µM. On the same count and under the same terms, the figure for `COc1cccc(NC(=O)SCCCN2CCN(Cc3ccc(Cl)cc3)CC2)c1` [Example 13, N-(3-Methoxyphenyl)-S-{3-[4-(4-chlorobenzyl)piperazin-1-yl]propyl}thiocarbamate dihydrochloride] is 140 µM. Take `CCCCc1ccc(NC(=O)SCCCN2CCN(CCc3ccc(Cl)cc3)CC2)cc1` [Example 27, N-(4-n-Butylphenyl)-S-{3-[4-(4-chlorophenethyl)piperazin-1-yl]propyl}thiocarbamate dihydrochloride]: the IC50 in assay [1] (setting [3]) was 30 µM.

For the compound `O=C(Nc1ccccc1)SCCCN1CCN(CCc2ccc(Cl)cc2)CC1` [Example 26, N-Phenyl-S-{3-[4-(4-chlorophenethyl)piperazin-1-yl]propyl}thiocarbamate dihydrochloride monohydrate], the results for the 50% inhibitory concentration (IC50) in assay [1] (setting [3]) and in assay [2] were 25 µM and 0.06 µM, respectively. As to `Cc1ccc(CN2CCN(CCCSC(=O)Nc3ccccc3)CC2)cc1` [Example 18, N-Phenyl-S-{3-[4-(4-methylbenzyl)piperazin-1-yl]propyl}thiocarbamate dihydrochloride sesquihydrate], the half-maximal inhibitory concentration (IC50) in assay [1] (setting [3]) was over 1000 µM.

Turning to `COc1ccccc1NC(=O)SCCCN1CCN(Cc2ccc(Cl)cc2)CC1` [Example 12, N-(2-Methoxyphenyl)-S-{3-[4-(4-chlorobenzyl)piperazin-1-yl]propyl}thiocarbamate dihydrochloride sesquihydrate], the IC50 in assay [1] (setting [3]) was over 300 µM. On to `CCCCCCNC(=O)SCCCN1CCN(Cc2ccc(Cl)cc2)CC1` [Example 40, N-(n-Hexyl)-S-{3-[4-(4-chlorobenzyl)piperazin-1-yl]propyl}thiocarbamate dihydrochloride], for which, in assay [1] (setting [3]), the IC50 stood at 71 µM. Consider `O=C(Nc1ccc(Cl)cc1)SCCCN1CCN(Cc2ccc(Cl)cc2)CC1` [Example 10, N-(4-Chlorophenyl)-S-{3-[4-(4-chlorobenzyl)piperazin-1-yl]propyl}thiocarbamate dihydrochloride monohydrate], for which the IC50 in assay [1] (setting [3]) was found to be 47 µM.

For `CCCCCCNC(=O)SCCCN1CCN(CC=Cc2ccccc2)CC1` [Example 44, N-(n-Hexyl)-S-[3-(4-cinnamylpiperazin-1-yl)propyl]thiocarbamate dihydrochloride], the concentration for half-maximal inhibition (IC50) in assay [1] (setting [3]) was over 1000 µM.

With `CC(C)(C)NC(=O)SCCCN1CCN(Cc2ccc(Cl)cc2)CC1` [Example 47, N-(t-Butyl)-S-{3-[4-(4-chlorobenzyl)piperazin-1-yl]propyl}thiocarbamate dihydrochloride sesquihydrate], the IC50 in assay [1] (setting [3]) was 58 µM.
